Results from patent publication US10932484B2, “Inhibitory activity of acetogenins against Listeria monocytogenes” (INSTITUTO TECHNOLOGICO Y DE ESTUDIOS SUPERIORES DE MONTERREY, priority 2016, dated 2021).
≈ marks a conversion by molar mass, not a printed value.

Assays:
[1] = test system: Listeria monocytogenes (ATCC 35152); test: Disc diffusion assay; format: cell-based; settings: for Inhibition zones of isolated acetogenins (in words): isolated molecules at 15 μg disc^−1, 37° C., 24 h; for Potency relative to Mirenat® in disc diffusion: 15 μg disc^−1 vs Mirenat® at 15 μg disc^−1 LAE
Procedure: Listeria monocytogenes (ATCC 35152) was acquired from the American Type Culture Collection (Manassas, Va., USA). For experimentation, frozen stocks were first activated in Brain Heart Infusion (BHI) broth (Becton, Dickinson and Co., Franklin Lakes, N.J., USA) for 16-18 h at 37° C. A sub-culture was prepared under the same growth conditions to 3⁄4 log phase (6-7 h). At this stage, cells were adjusted with BHI to an initial optical density (OD) at 600 nm of 0.15, which corresponded to 8×10^6 CFU mL^-1 and served as the inoculum for the following antimicrobial assays. Aliquots (100 μL) of the cell suspension described above were evenly spread with a sterile plastic rod on the surface of agar plates. Sterile filter paper disks (Whatman No. 1, 6 mm) were impregnated with aliquots (5 μL) of the antimicrobial solution (EAE, Avosafe® and isolated acetogenins) freshly prepared at 3000 ppm in 96% food grade ethanol to delivered 15 μg disc^-1 of active compounds. All solutions were sonicated for 5 min (Branson 2510, Branson Ultrasonics, Danbury, Conn., USA) and vortexed for 30 s before dispensing the corresponding volumes. The disks were air-dried for approximately 1 h in a biological safety cabinet before placed into the inoculated plate. Antimicrobials were tested in triplicate, one disk per plate to account for plate variability. Vehicle and positive controls were also incorporated into each plate and contemplated 5 μl of 96% ethanol and […]® at 3000 ppm LAE in sterile deionized water. Each plate contained at most six disks evenly distributed. Plates were incubated for 24 h at 37° C. After, diameters of inhibition zones were measured to the nearest millimeter.

[2] = test system: Listeria monocytogenes (ATCC 35152); test: Minimum inhibitory concentration (MIC) and minimum bactericidal concentration (MBC), broth dilution; format: cell-based; settings: 37° C.; for MBC/MIC ratio: ≤4 bactericidal, >4 bacteriostatic; for MBC / MIC: Listeria monocytogenes, ATCC35152, 24 h
Procedure: Listeria monocytogenes (ATCC 35152) was acquired from the American Type Culture Collection (Manassas, Va., USA). For experimentation, frozen stocks were first activated in Brain Heart Infusion (BHI) broth (Becton, Dickinson and Co., Franklin Lakes, N.J., USA) for 16-18 h at 37° C. A sub-culture was prepared under the same growth conditions to ¾ log phase (6-7 h). At this stage, cells were adjusted with BHI to an initial optical density (OD) at 600 nm of 0.15, which corresponded to 8×10^6 CFU mL^−1 and served as the inoculum for the following antimicrobial assays.
Stock solutions (25000-5000 ppm) of EAE, Avosafe® and isolated molecules were prepared in ≥99.5% food-grade propylene glycol (PG) (Sigma Aldrich, St. Louis, Mo., USA) and stored in brown vials at −80° C. Working solutions in culture media were prepared from room temperature acclimatized stock solutions that were sonicated (5 min) and vortexed (30 s) as described above. Culture medium was adjusted to 4% w/v PG to account for the effect of the vehicle in all concentrations tested and sets of experiments. Prior tests were conducted to confirm that 4% PG had no effect on growth. Serial 2-fold dilutions of samples, in a range of concentrations from 125 to 0.98 ppm, were prepared in sterile 96-well clear polystyrene microplates (Cat. No. 3370, Corning, Corning, N.Y., USA) or disposable test tubes (VWR, Radnor, Pa., USA) to a final volume of 300 μL or 1 mL, respectively. The experimentation scale was determined by the amount of test product available. Each well or tube was inoculated with 10% v/v liquid phase of the cell suspension (OD600 nm 0.15) as previously described. A growth control (no antimicrobial added), an aseptic control (uninoculated), and a positive control (Mirenat®) were also examined. After 24 h at 37° C., the MIC was defined as the lowest concentration at which no visual growth was assessed by turbidity (Levison, M. E., “Pharmacodynamics of Antimicrobial Drugs,” Infect. Dis. Clin. North. Am. 18(3):451-65 (2004), which is hereby incorporated by reference in its entirety). […] Then, the pellet was resuspended in antimicrobial-free medium and incubated for 24 h at 37° C. The MBC was defined as the lowest concentration showing no growth (Levison, M. E., “Pharmacodynamics of Antimicrobial Drugs,” Infect. Dis. Clin. North. Am. 18(3):451-65 (2004), which is hereby incorporated by reference in its entirety). All tests were independently replicated (n=3) and performed with technical triplicates.

[3] = Effect of thermal processing and storage on acetogenins concentration in sausages; format: physicochemical; settings: sausages with 10,000 ppm Avosafe®, cooking and pasteurization
Description: Effect of thermal processing and storage on acetogenins concentration. Acetogenins in sausages (Treatment A: un-cooked, day 0 and 90) were extracted and quantified as reported by Salinas-Salazar et al, “Inhibitory Activity of Avocado Seed Fatty Acid Derivatives (Acetogenins) Against Listeria Monocytogenes” J Food Sci 82: 134-44 (2016), which is hereby incorporated by reference in its entirety, with some modifications. Three grams (3 g) of sample were homogenized with acetone (1:5, w/v) using an Ultra-Turrax T25 homogenizer (IKA Works, Willmington, N.C., USA.) at 11000 rpm for 3 min, sonicated for 5 min, and centrifuged at 3600 rpm for 6 min (5° C.). Supernatants were collected and the precipitated material was extracted again two times, as mentioned above. After, supernatants were mixed and the solvent was evaporated at 35° C. using a rotary evaporator (Büchi R-210, Büchi Labortechnik AG, Switzerland) under high vacuum (22 in Hg). Residue was partitioned in 10 mL hexane:methanol (1:1). After 30 s of vortex, phases were separated by centrifugation (4000 rpm, 10 min) and the lower phase (methanol) was recovered and washed two more times with hexane, taken to dryness under nitrogen gas, resuspended in 1 mL isopropanol and passed through a 0.45 μm PTFE filter prior to HPLC injection. Agilent HPLC systems (Santa Clara, Calif., USA) 1260 Infinity series coupled to a G4212B photodiode array detector (PDA) and an evaporative light scattering detector G4218A was used. The PDA detector was set at 220 and 208 nm (Rodríguez-López, “A Targeted Metabolomics Approach to Characterize Acetogenin Profiles in Avocado Fruit (Persea americana Mill.)” RSC Adv 5: 106019-29 (2015), which is hereby incorporated by reference in its entirety).

[4] = dose of 100 mg kg^−1 of body weight; cited from earlier work
[5] = lactating mice; cited from earlier work
[6] = test system: C. sporogenes; settings: cited from earlier work

In the case of `C#CCC/C=C/CCCCCCC[C@H](O)CC(O)COC(C)=O` (stereo in doubt) [AcO-avocadenyne, 1-acetoxy-2,4-dihydroxy-heptadec-12-en-16-yne], the “Antimicrobial activity relative to AcO-avocadene” value ([1]; 15 μg disc^−1, FIG. 4) is reported as 4 times, the MBC/MIC ratio [2] is reported as 2 and the MBC [2] is reported as 31.2 µg/mL (≈ 96.2 µM). The MIC [2] was 15.6 µg/mL (≈ 48.1 µM).

In the case of `C=CCCCCCCCCCCC[C@H](O)C[C@H](O)COC(C)=O` [AcO-avocadene, (2S,4S)-1-acetoxy-2,4-dihydroxy-n-heptadeca-16-ene], the “Processing losses compared to unprocessed control (in words)” value [3] is reported as “no statistically significant” and the “Inhibition zones of isolated acetogenins (in words)” value (shortened to “Inhibition zones”) [1] is reported as “least potent”.

With `C=CCCCCCCCCCC=CC(O)CC(O)COC(C)=O` (stereo not drawn) [AcO-avocadiene A, 1-Acetoxy-2,4-dihydroxy-heptadeca-5,16-diene] the “Processing losses compared to unprocessed control (in words)” value [3] was “no statistically significant” and the “Inhibition zones” value [1] was “did not produce inhibition zones”.

In the case of `C#CCCCCCCCCCCCC(O)CC(O)COC(C)=O` (stereo not drawn) [AcO-avocadyne, 1-acetoxy-2,4-dihydroxy-heptadec-16-yne], the “Inhibition zones” value [1] is reported as “did not produce inhibition zones”.

For `CCCCC/C=C\C/C=C\CCCCC/C=C/C(=O)C[C@@H](O)COC(C)=O` [Persenone A, (2R,5E,12Z,15Z)-1-acetoxy-2-hydroxy-4-oxoheneicosa-5,12,15-triene], the “Processing losses compared to unprocessed control (in words)” value [3] was “no statistically significant”, the “Potency relative to Mirenat® in disc diffusion” value [1] was “around 3 fold” and the “Inhibition zones” value [1] was “highest inhibition zones”. The MBC/MIC ratio [2] was 2, the MBC [2] was 15.6 µg/mL (≈ 41.2 µM) and the MIC [2] was 7.8 µg/mL (≈ 20.6 µM).

In the case of `CCCCCCCCCCCCC/C=C/C(=O)C[C@@H](O)COC(C)=O` [Persenone B, (5E)-1-acetoxy-2-hydroxy-4-oxononadeca-5-ene], the “Processing losses compared to unprocessed control (in words)” value [3] is reported as “no statistically significant”.

For `CC/C=C/CCCCCCCCC/C=C/C(=O)C[C@@H](O)COC(C)=O` [Persenone C, (2R,5E,16E)-1-acetoxy-2-hydroxy-4-oxononadeca-5,16-diene], the “Potency relative to Mirenat® in disc diffusion” value [1] was “around 3 fold” and the “Inhibition zones” value [1] was “highest inhibition zones”.

In the case of `CCCCC/C=C\C/C=C\CCCCCCCC(=O)C[C@@H](O)COC(C)=O` [Persin, (2R,12Z,15Z)-1-acetoxy-2-hydroxy-4-oxoheneicosa-12,15-diene], the “Effect in liver injury (in words)” value [4] is listed as “protective effect”, the Toxic acute doses [5] is listed as 60-100 mg kg^−1 body weight and the “Antimicrobial activity against C. sporogenes (in words)” value [6] is listed as “minimal”.
